From PubChem BioAssay (NCI) come the findings set out here.

Assay in all cases: NCI-60 cell line screen, 48 h
The subject of test [1] is TK-10 renal.
Test [2] deals with PC-3 prostate.
For test [3], the system named is RXF 393 renal.
Test [4] deals with ACHN renal.
Test [5] has as its system NCI-H226 lung.
In test [6] the test system is HT29 colon.
In test [7] the test system is OVCAR-5 ovarian.
Test [8] deals with U251 CNS.
In test [9] the test system is OVCAR-8 ovarian.
In test [10] the test system is HL-60(TB) leukemia.
Test [11] deals with EKVX NSCLC.
For test [12], the system named is NCI/ADR-RES ovarian.
The subject of test [13] is SK-MEL-28 melanoma.
Test [14] relates to K-562 leukemia.
The subject of test [15] is HCC-2998 colon.
In test [16] the test system is NCI-H23 lung.
Test [17] relates to NCI-H522 lung.
In test [18] the test system is SNB-75 CNS.
For test [19], the system named is CAKI-1 renal.

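Each compound was tested at five concentrations against cells in 96-well plates for 48 hours. TGI marks complete inhibition of growth.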

Take `CCCCCCCCC#CCCCCCCC(F)C(=O)O` (centres undefined): the TGI in [1], in [2], in test [3], in test [4], in test [5] and in test [6] was > 100 µM throughout. Moreover, the TGI in test [7] is > 100 µM; in test [8] it was > 100 µM; in [9] it was > 100 µM; in [10] it was 83.6 µM; in test [11], > 100 µM; in test [12] it was > 100 µM. Besides, the TGI in [13], in [14], in test [15], in test [16], in test [17] and in test [18] was > 100 µM in each case.

For `CC(=O)O[C@H]1[C@@H](N2CCCCC2)C[C@H]2[C@@H]3CC=C4C[C@@H](N5CCCC5)CC[C@]4(C)[C@H]3CC[C@@]21C`, the TGI in test [1], in test [2], in test [3], in test [19], in test [4] and in test [5] was > 100 µM each time. Also, the TGI in [6], in test [7], in test [8], in test [9], in test [10] and in [11] was > 100 µM throughout. In addition, the TGI in test [12] is > 100 µM; in [13], 48.9 µM; in test [14], 22.5 µM; in test [15], 34.4 µM; in test [16], > 100 µM; in test [17] it was > 100 µM. Besides, the TGI in test [18] is > 100 µM.

For `CN(C)/C=N/S(=O)(=O)c1nn2c(C=O)c(-c3ccc(-c4ccccc4)cc3)nc2s1`, the TGI in test [1] stood at 3.83 µM; in test [2], 5.07 µM; in [3] it was 4.49 µM; in test [19], 2.88 µM; in test [4], 3.18 µM; in test [5], 32.4 µM. Besides, the TGI was 1.49 µM in test [6]; 25.3 µM in test [7]; 3.17 µM in test [8]; 0.342 µM in test [10]; 19.8 µM in test [11]; > 86.8 µM in test [12]. The TGI in test [13] came out at 4.33 µM; in test [15] it was 11.7 µM; in test [16], 4.55 µM; in test [17] it was 1.6 µM; in test [18], 18.3 µM.

Consider `c1ccc2c(c1)n1c(N3CCCC3)[n+]3ccccc3c1c1c3cccc[n+]3c(N3CCCC3)n21`, for which the TGI in test [1], in test [2], in test [3], in test [19], in test [4] and in [5] was > 100 µM in each case. Besides, the TGI in test [7] is > 100 µM; in test [8], > 100 µM; in test [9], 93.3 µM; in [10] it was > 100 µM; in test [11], > 100 µM; in test [12], > 100 µM. In addition, the TGI is > 100 µM in test [13]; > 100 µM in [14]; > 100 µM in [15]; > 100 µM in test [16]; > 100 µM in test [17]; 68.5 µM in [18].

Regarding `CCc1n[nH]c(=O)n1N`, the TGI in test [1], in test [2], in test [19], in [4], in [5] and in [6] was > 100 µM throughout. Besides, the TGI in [7], in test [8], in [9], in test [10], in test [11] and in [12] was > 100 µM throughout. Besides, the TGI in test [13], in [14], in [15], in test [16], in test [17] and in test [18] was > 100 µM throughout.

Turning to `C#CCNC(CCCN=C(N)N)C(=O)O` (centres undefined), the TGI in test [1], in test [2], in test [3], in test [19], in test [4] and in test [5] was > 100 µM each time. In addition, the TGI in test [6], in test [7], in test [8], in test [9], in [10] and in [11] was > 100 µM in each case. The TGI in test [12], in [13], in test [14], in [15], in test [16] and in test [17] was > 100 µM throughout. For the same compound, the TGI in [18] was > 100 µM.
